# According to patent publication US10441537B2, “Unit doses, aerosols, kits, and methods for treating heart conditions by pulmonary administration” (InCarda Therapeutics, Inc., priority 2017, dated 2019):
# Counter-ions that a name gives are not always drawn.
# Assays:
# [1] = test system: induced supraventricular tachycardia; test: Supraventricular tachycardia (SVT) model in anesthetized dogs, IT vs IV; assay type: in vivo; details: for cardiovascular effect when given by intratracheal instillation (summary): dog, in vivo
# Description: Supraventricular Tachycardia Model:
# Anesthesia/Surgical Preparation:
# A venous catheter was placed in a peripheral vessel (i.e., cephalic) for administration of anesthetic(s). For anesthesia induction, all animals were given a combination of diazepam (˜0.5 mg/kg) and ketamine (˜10 mg/kg) intravenously through this venous catheter. Anesthesia was sustained until completion of the study with an intravenous infusion of pentobarbital (5-15 mg/kg/hr). Following induction, animals were endotracheally intubated and mechanically ventilated (˜12 breaths/min with a tidal volume of 200-300 mL).
# Subsequently, a cut-down on a jugular vein permitted the introduction of a pacing lead into the right atrium. Similarly, for arterial pressure monitoring, a solid-state micromanometer catheter (Millar Instruments) was advanced into the aortic root via a cut-down over an artery (e.g., femoral, carotid). Transthoracic electrodes forming ECG lead II was placed. For vehicle/test article delivery, a 4F catheter was introduced through the trachea and wedged into a small airway, and a venous catheter was placed in a peripheral vessel (i.e., cephalic).
# Following instrumentation/hemodynamic stabilization (for at least 15 minutes), right atrial pacing (5-10 V, 40 Hz, 2 ms pulses) was established in order to induce supraventricular tachycardia (SVT); pacing and SVT was sustained throughout the duration of the experiments. Approximately 5 minutes after onset of SVT and while monitoring ECG/arterial pressure continuously, the animals were administered three escalating doses (one at a time) of a test article; each dose was delivered as a bolus (˜3 mL) directly into a small airway through the intratracheal catheter (IT). Following dosing, the heart-rate (HR) and arterial pressure response were monitored for 15 minutes.
# Subsequently (once the response to three IT doses had been recorded), hemodynamic recovery was allowed for approximately 30 minutes, and the electrocardiographic/hemodynamic response to the highest test-article dose was re-evaluated; however, for comparison purposes, this dose was delivered intravenously (IV).
# Overall, two groups/test-articles were studied, and up to two animals were assigned to each group (n=2/group): one group received esmolol HCL (0.5-1.0 mg/kg, ESM), while the other received adenosine (0.25-1.0 mg/kg, ADN); only one test article was administered to per animal.
# [2] = test system: induced atrial fibrillation; test: Induced atrial fibrillation model in anesthetized dogs, intratracheal (IT) administration; assay type: in vivo; details: for conversion of induced atrial fibrillation to normal sinus rhythm: pulmonary dose 0.25 mg/kg body weight (FIG. 13), hydrochloride
# Description: Atrial Fibrillation Model: Anesthesia/Surgical Preparation: A venous catheter was placed in a peripheral vessel (i.e., cephalic) for administration of anesthetic. […] Following induction, animals were endotracheally intubated and mechanically ventilated (˜12 breaths/minute with a tidal volume of 200-300 mL). Subsequently, a cut-down on a jugular vein permitted introduction of a pacing lead into the right atrium. Transthoracic electrodes forming ECG lead II were placed. For test/vehicle article delivery, a 4F catheter was introduced through the trachea and wedged into a small airway, and a venous catheter was placed in a peripheral vessel (i.e., cephalic). […] Approximately 5 min after administration of this parasympathomimetic was started; the following experiments were performed: […] Observations were made for up to 10 minutes. […] Vehicle was only water.
smiles,measurement,setting,value
Nc1ncnc2c1ncn2[C@@H]1O[C@H](CO)[C@@H](O)[C@H]1O [adenosine],cardiovascular effect when given by intratracheal instillation (summary),[1],a clear response was not observed
same,effect on the heart,[1]; via the lung,did not have any effect on the heart
"COc1ccc([C@@H]2Sc3ccccc3N(CCN(C)C)C(=O)[C@@H]2OC(C)=O)cc1 [diltiazem, diltiazem hydrochloride]",conversion of Atrial Fibrillation to normal sinus rhythm,[2]; IT bolus,rapidly converted the Atrial Fibrillation to normal sinus rhythm
same,cardiovascular effect when given by intratracheal instillation (summary),"[2]; dog, in vivo",clear cardiovascular effect
same,mean arterial blood pressure (MAP),"[2]; dog, in vivo, 0.25 mg/kg",notable drop in mean arterial blood pressure
same,PQ interval,[2]; pulmonary dose 0.25 mg/kg,prolonged the PQ interval
same,heart rate,[2]; pulmonary dose 0.25 mg/kg,slowed down but marginally
same,conversion of induced atrial fibrillation to normal sinus rhythm,[2]; 0.25 mg/kg,converted the induced atrial fibrillation to normal sinus rhythm
same,conversion of induced atrial fibrillation to normal sinus rhythm,"[2]; listed as diltiazem HCl, 0.25 mg/kg",Afib converting after administration
same,pulmonary vs IV route,[1]; 0.25 mg/kg,comparable in all aspects
same,PR interval,[1]; IV or pulmonary route,prolonged the PR interval
same,pH of solution in water,3.5 mg/mL,6.7
same,appearance of solution,"distilled water, diltiazem hydrochloride 50 mg/ml, flecainide acetate 30 mg/ml",clear with no visible particulate matter
CN(CCOc1ccc(NS(C)(=O)=O)cc1)CCc1ccc(NS(C)(=O)=O)cc1 [dofetilide],effect on ventricular rate,[2]; IT bolus,marginally slowed the ventricular rate
same,cardiovascular effect when given by intratracheal instillation (summary),"[2]; dog, in vivo",probable effect
same,heart rate,[2]; escalating pulmonary doses of 10-40 mcg/kg body weight,minor reduction in heart rate
"COC(=O)CCc1ccc(OCC(O)CNC(C)C)cc1 (stereo not shown) [esmolol, esmolol HCl]",period of AV block,"[1]; 0.5 mg/kg via the lung (FIG. 17, 18)",AV block induced
same,period of AV block,[1]; 0.75 mg/kg via the lung (FIG. 20),AV block induced
same,cardiovascular effect when given by intratracheal instillation (summary),[1],probable effect
same,AV block,[1]; elevating IT doses,2nd degree AV block at lower doses
same,PR intervals in the ECG traces,[1]; elevating IT doses,prolonging the PR intervals
same,electrophysiological effects,[1]; higher dose 1.0 mg/kg,did not produce the same electrophysiological effects
